Laboratory results from PubChem BioAssay AID1963854 (Molecular Pharmacology Branch, DTP, NCI, 2024).

Test system: 186277-243-T-J2-PDC complex spheroid viability
Test: Anticancer human tumor 186277-243-T-J2-PDC patient-derived colon adenocarcinoma cell line growth inhibition [POLQ]
Details: for IC50: curve of first compound; for viability, T/C: stronger effect = lower value
In short: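 Three-cell-type spheroids modelling solid tumor plus stroma served as the readout system; POL inhibitors were tested individually and in combination, concentration ranges set by clinical Cmax where known.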

[1] = second compound 0.0316 µM, first compound 0.00316 µM
[2] = second compound 0.0316 µM, first compound 0.01 µM
[3] = second compound 0.0316 µM, first compound 0.0316 µM
[4] = second compound 0.0316 µM, first compound 0.1 µM
[5] = second compound 0.0316 µM, first compound 0.316 µM
[6] = second compound 0.0316 µM, first compound 1 µM
[7] = second compound 0.1 µM, first compound 0.00316 µM
[8] = second compound 0.1 µM, first compound 0.01 µM
[9] = second compound 0.1 µM, first compound 0.0316 µM
[10] = second compound 0.1 µM, first compound 0.1 µM
[11] = second compound 0.1 µM, first compound 0.316 µM
[12] = second compound 0.1 µM, first compound 1 µM
[13] = second compound 0.316 µM, first compound 0.00316 µM
[14] = second compound 0.316 µM, first compound 0.01 µM
[15] = second compound 0.316 µM, first compound 0.0316 µM
[16] = second compound 0.316 µM, first compound 0.1 µM
[17] = second compound 0.316 µM, first compound 0.316 µM
[18] = second compound 0.316 µM, first compound 1 µM
[19] = second compound 1 µM, first compound 0.00316 µM
[20] = second compound 1 µM, first compound 0.01 µM
[21] = second compound 1 µM, first compound 0.0316 µM
[22] = second compound 1 µM, first compound 0.1 µM
[23] = second compound 1 µM, first compound 0.316 µM
[24] = second compound 1 µM, first compound 1 µM
[25] = second compound 3.16 µM, first compound 0.00316 µM
[26] = second compound 3.16 µM, first compound 0.01 µM
[27] = second compound 3.16 µM, first compound 0.0316 µM
[28] = second compound 3.16 µM, first compound 0.1 µM
[29] = second compound 3.16 µM, first compound 0.316 µM
[30] = second compound 3.16 µM, first compound 1 µM
[31] = second compound 10 µM, first compound 0.00316 µM
[32] = second compound 10 µM, first compound 0.01 µM
[33] = second compound 10 µM, first compound 0.0316 µM
[34] = second compound 10 µM, first compound 0.1 µM
[35] = second compound 10 µM, first compound 0.316 µM
[36] = second compound 10 µM, first compound 1 µM
[37] = second compound 0.0316 µM, first compound 3.16 µM
[38] = second compound 0.0316 µM, first compound 10 µM
[39] = second compound 0.1 µM, first compound 3.16 µM
[40] = second compound 0.1 µM, first compound 10 µM
[41] = second compound 0.316 µM, first compound 3.16 µM
[42] = second compound 0.316 µM, first compound 10 µM
[43] = second compound 1 µM, first compound 3.16 µM
[44] = second compound 1 µM, first compound 10 µM
[45] = second compound 3.16 µM, first compound 3.16 µM
[46] = second compound 3.16 µM, first compound 10 µM
[47] = second compound 10 µM, first compound 3.16 µM
[48] = second compound 10 µM, first compound 10 µM
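Further: spheroids exposed to compounds for seven days.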
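Wherever viability, T/C is given: 100% = DMSO vehicle control viability.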

C=CCn1c(=O)c2cnc(Nc3ccc(N4CCN(C)CC4)cc3)nc2n1-c1cccc(C(C)(C)O)n1 + COC1C(OC(N)=O)C(O)C(Oc2ccc3c(O)c(NC(=O)c4ccc(O)c(CC=C(C)C)c4)c(=O)oc3c2C)OC1(C)C
IC50 (second compound 0.0316 µM): 189 nM | IC50 (second compound 0.1 µM): 185 nM | IC50 (second compound 0.316 µM): 190 nM | IC50 (second compound 1 µM): 182 nM | IC50 (second compound 3.16 µM): 177 nM | IC50 (second compound 10 µM): 178 nM | viability, T/C [1]: 100% | viability, T/C [2]: 88.2% | viability, T/C [3]: 109% | viability, T/C [4]: 93.4% | viability, T/C [5]: 14.8% | viability, T/C [6]: 7.82% | viability, T/C [7]: 83.8% | viability, T/C [8]: 97.8% | viability, T/C [9]: 107% | viability, T/C [10]: 91.3% | viability, T/C [11]: 13.7% | viability, T/C [12]: 7.76% | viability, T/C [13]: 93.4% | viability, T/C [14]: 87.7% | viability, T/C [15]: 99.2% | viability, T/C [16]: 100% | viability, T/C [17]: 14.1% | viability, T/C [18]: 8.59% | viability, T/C [19]: 103% | viability, T/C [20]: 104% | viability, T/C [21]: 104% | viability, T/C [22]: 91.8% | viability, T/C [23]: 11.1% | viability, T/C [24]: 8.27% | viability, T/C [25]: 104% | viability, T/C [26]: 96.2% | viability, T/C [27]: 109% | viability, T/C [28]: 85.8% | viability, T/C [29]: 13.5% | viability, T/C [30]: 7.48% | viability, T/C [31]: 104% | viability, T/C [32]: 110% | viability, T/C [33]: 95.2% | viability, T/C [34]: 87.6% | viability, T/C [35]: 12% | viability, T/C [36]: 7.75%

CC[C@@]1(O)C(=O)OCc2c1cc1n(c2=O)Cc2cc3c(CN(C)C)c(O)ccc3nc2-1 + COC1C(OC(N)=O)C(O)C(Oc2ccc3c(O)c(NC(=O)c4ccc(O)c(CC=C(C)C)c4)c(=O)oc3c2C)OC1(C)C
IC50 (second compound 0.0316 µM): 69.9 nM | IC50 (second compound 0.1 µM): 60.7 nM | IC50 (second compound 0.316 µM): 52.5 nM | IC50 (second compound 1 µM): 48.7 nM | IC50 (second compound 3.16 µM): 48.5 nM | IC50 (second compound 10 µM): 48 nM | viability, T/C (second compound 0.0316 µM, first compound 0.000316 µM): 105% | viability, T/C (second compound 0.0316 µM, first compound 0.001 µM): 103% | viability, T/C [1]: 97.4% | viability, T/C [2]: 114% | viability, T/C [3]: 65.5% | viability, T/C [4]: 43% | viability, T/C (second compound 0.1 µM, first compound 0.000316 µM): 96.1% | viability, T/C (second compound 0.1 µM, first compound 0.001 µM): 99.1% | viability, T/C [7]: 117% | viability, T/C [8]: 115% | viability, T/C [9]: 60.4% | viability, T/C [10]: 42% | viability, T/C (second compound 0.316 µM, first compound 0.000316 µM): 101% | viability, T/C (second compound 0.316 µM, first compound 0.001 µM): 113% | viability, T/C [13]: 104% | viability, T/C [14]: 109% | viability, T/C [15]: 57.9% | viability, T/C [16]: 40% | viability, T/C (second compound 1 µM, first compound 0.000316 µM): 105% | viability, T/C (second compound 1 µM, first compound 0.001 µM): 105% | viability, T/C [19]: 97.1% | viability, T/C [20]: 120% | viability, T/C [21]: 57% | viability, T/C [22]: 38.5% | viability, T/C (second compound 3.16 µM, first compound 0.000316 µM): 97.3% | viability, T/C (second compound 3.16 µM, first compound 0.001 µM): 107% | viability, T/C [25]: 102% | viability, T/C [26]: 107% | viability, T/C [27]: 56.6% | viability, T/C [28]: 38.9% | viability, T/C (second compound 10 µM, first compound 0.000316 µM): 107% | viability, T/C (second compound 10 µM, first compound 0.001 µM): 119% | viability, T/C [31]: 104% | viability, T/C [32]: 110% | viability, T/C [33]: 56.3% | viability, T/C [34]: 38.9%

O=c1[nH]cc(F)c(=O)[nH]1 + Cc1cccc(N(C)C(=O)C2C(O)CCN2c2nc(C)cc(C(F)(F)F)c2C#N)c1
IC50 (second compound 0.0316 µM): 9400 nM | IC50 (second compound 0.1 µM): > 10000 nM | IC50 (second compound 0.316 µM): 9140 nM | IC50 (second compound 1 µM): 9770 nM | IC50 (second compound 3.16 µM): > 10000 nM | IC50 (second compound 10 µM): 8830 nM | viability, T/C [3]: 103% | viability, T/C [4]: 99.5% | viability, T/C [5]: 95.4% | viability, T/C [6]: 112% | viability, T/C [37]: 75.5% | viability, T/C [38]: 48.5% | viability, T/C [9]: 105% | viability, T/C [10]: 99.9% | viability, T/C [11]: 98.9% | viability, T/C [12]: 98.3% | viability, T/C [39]: 73.5% | viability, T/C [40]: 52.2% | viability, T/C [15]: 87.2% | viability, T/C [16]: 91.6% | viability, T/C [17]: 94.4% | viability, T/C [18]: 116% | viability, T/C [41]: 76.5% | viability, T/C [42]: 47.8% | viability, T/C [21]: 102% | viability, T/C [22]: 102% | viability, T/C [23]: 104% | viability, T/C [24]: 103% | viability, T/C [43]: 79.9% | viability, T/C [44]: 49.4% | viability, T/C [27]: 112% | viability, T/C [28]: 108% | viability, T/C [29]: 88.5% | viability, T/C [30]: 99.7% | viability, T/C [45]: 81.8% | viability, T/C [46]: 52.1% | viability, T/C [33]: 105% | viability, T/C [34]: 110% | viability, T/C [35]: 100% | viability, T/C [36]: 111% | viability, T/C [47]: 77.6% | viability, T/C [48]: 46.7%

COc1cc2cc(C(=O)CCC(=O)O)sc2cc1OC + Cc1cccc(N(C)C(=O)C2C(O)CCN2c2nc(C)cc(C(F)(F)F)c2C#N)c1
IC50 (second compound 0.0316 µM): > 10000 nM | IC50 (second compound 0.1 µM): > 10000 nM | IC50 (second compound 0.316 µM): > 10000 nM | IC50 (second compound 1 µM): > 10000 nM | IC50 (second compound 3.16 µM): > 10000 nM | IC50 (second compound 10 µM): > 10000 nM | viability, T/C [3]: 97.6% | viability, T/C [4]: 87.7% | viability, T/C [5]: 95% | viability, T/C [6]: 82.1% | viability, T/C [37]: 111% | viability, T/C [38]: 91.6% | viability, T/C [9]: 88.8% | viability, T/C [10]: 89.1% | viability, T/C [11]: 90.5% | viability, T/C [12]: 99.7% | viability, T/C [39]: 105% | viability, T/C [40]: 99.2% | viability, T/C [15]: 101% | viability, T/C [16]: 91.7% | viability, T/C [17]: 96.6% | viability, T/C [18]: 98.1% | viability, T/C [41]: 93.5% | viability, T/C [42]: 103% | viability, T/C [21]: 93.2% | viability, T/C [22]: 93.5% | viability, T/C [23]: 102% | viability, T/C [24]: 109% | viability, T/C [43]: 101% | viability, T/C [44]: 113% | viability, T/C [27]: 106% | viability, T/C [28]: 112% | viability, T/C [29]: 92.4% | viability, T/C [30]: 99.4% | viability, T/C [45]: 118% | viability, T/C [46]: 91.7% | viability, T/C [33]: 107% | viability, T/C [34]: 109% | viability, T/C [35]: 112% | viability, T/C [36]: 101% | viability, T/C [47]: 93.9% | viability, T/C [48]: 84.4%
